Values after ≈ are worked out from the molar mass of the structure shown. Values joined by “and” are separate entries in the source; they are usually repeats but may differ in a detail not shown here. Identical values can stand only once.

Data set [1] has as its system M. tuberculosis H37Rv strain. Nature of the data set: Resazurin microtiter assay (REMA), MIC against Mtb H37Rv. It is filed as cell-based, Mycobacterium tuberculosis. The following applies: MTB H37Rv (ATCC 27294), 7 days incubation, text calls it MIC; for MIC50: Mycobacterium tuberculosis, ATCC 27294 / H37Rv, 168 h. Background: Alamar Blue is a resazurin reagent that responds to reducing activity.

Data set [2] concerns mouse fibroblast 3T3 cells. Nature of the data set: MTT cytotoxicity assay on mouse fibroblast 3T3 cells. As to conditions: for Selectivity index: IC50 (μg/mL)/MIC (μg/mL), 3T3 cells vs Mtb H37Rv; for IC50: NIH3T3, MTT assay, read-out: 3T3 cell IC50. It is filed as cell-based. Background: Tetrazolium assays rely on reduction of a dye to a coloured formazan, in cell work by metabolically active cells.

Another data set addresses DprE1 (Mycobacterium tuberculosis, UniProt P9WJF1). In words: DprE1 inhibition (resazurin redox indicator, fluorometric) assay. It is filed as biochemical. The following applies: purified DprE1, GGPR substrate. As to the method:
For the identification and validation of the biological target for this new series of 1,2,3-triazole-linked benzoxazoles, compounds displaying antimycobacterial activity below 6 μg/mL and showcasing diverse side chains were assessed against the purified DprE1 protein (Table 1). The assessment of the compounds’ ability to inhibit DprE1 activity was conducted through an in-vitro assay. This involved purified DprE1 protein, geranylgeranyl-phosphoryl-β-d-ribose (GGPR) substrate, and resazurin as a redox indicator. The synthesised molecules were tested for their impact on DprE1 activity within this experimental setup. The initial rates of activity, characterised by increasing concentrations of the compound, were measured and compared to the control compound TCA-1. The half maximal inhibitory concentration (IC50) was then calculated for each synthesised compound, quantitatively assessing their inhibitory effect. […] The promising results prompted us to delve deeper into these compounds through initial assessments of their druggability profiles and validation via computational studies. This approach aims to enhance our understanding of the structural features involved in the inhibition mechanism of the DprE1 enzyme, utilising docking and molecular dynamics (MD) simulation studies.
A redox indicator assay was conducted following a previously described protocol, utilising the reduction of resazurin to its fluorescent form, resorufin. In this assay, the DprE1 cofactor FAD undergoes reduction to FADH2, while the C-2 hydroxyl group of the substrate GGPR is oxidised to form a keto-intermediate known as geranylgeranylphosphoryl-β-d-2′-keto-erythro-penta-furanose (GGPX)[11]^,[40]. The inhibition of DprE1 was assessed using an activity assay, with the half maximal inhibitory concentration (IC50) determined for each tested compound. Intermediate plates of compounds were prepared in V-bottomed 96-well plates, where the compounds were serially diluted twofold in DMSO. Subsequently, 1 µL of each compound dilution was pipetted in triplicate into Greiner black-bottomed 384 plates. The master mix (19 µL), comprising 5 µM DprE1, 50 mM Hepes pH 7.5, 100 mM NaCl, and 100 µM resazurin, was added to the compounds in the plate. The assay was initiated with 5 µL of 1 mM GGPR using the pump on the POLARstar Omega plate reader (BMG Labtech). Emission was measured at 590 nm with excitation at 530 nm at 37 °C[41]^. IC50 values were calculated using Prism GraphPad, fitting the data to a four-parameter dose–response curve. The initial rates of activity were used for the calculations, and fluorescence units were converted to µM resazurin reduced by referencing a resorufin standard curve.

The mark [3] stands for this setting: Mus musculus, mouse fibroblast 3T3 cells, cytotoxicity.

DprE1, sequence (P9WJF1 whole entry): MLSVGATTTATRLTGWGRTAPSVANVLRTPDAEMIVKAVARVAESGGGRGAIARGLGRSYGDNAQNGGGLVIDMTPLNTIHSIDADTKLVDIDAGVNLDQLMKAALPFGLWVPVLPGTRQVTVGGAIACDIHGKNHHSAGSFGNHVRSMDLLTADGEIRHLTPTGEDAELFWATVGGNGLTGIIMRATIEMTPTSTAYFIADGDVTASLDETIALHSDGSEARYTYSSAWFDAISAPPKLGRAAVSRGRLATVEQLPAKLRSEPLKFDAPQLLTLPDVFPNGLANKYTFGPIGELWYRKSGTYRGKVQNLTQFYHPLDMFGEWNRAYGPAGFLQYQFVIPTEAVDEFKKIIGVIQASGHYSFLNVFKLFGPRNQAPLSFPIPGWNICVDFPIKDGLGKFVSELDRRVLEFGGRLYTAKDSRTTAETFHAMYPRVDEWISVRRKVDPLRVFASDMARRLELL

Usually MIC50 stands for an inhibitory concentration at the 50% level, which refers to growth in some studies and to a panel of isolates in others. High values mean weaker potency, low ones greater potency. Usually melting point stands for the temperature, or range, at which the solid turns liquid. The molecule `O=C(CC(=O)Nc1ccc(Br)cc1)Cn1cc(CSc2nc3ccccc3o2)nn1` [BOK-8, 4–(4-((Benzo[d]oxazol-2-ylthio)methyl)-1H-1,2,3-triazol-1-yl)-N-(4-bromophenyl)-3-oxo butanamide] displayed a melting point of 210 to 214 °C. This molecule showed an MIC50 in data set [1] of 44.1 µg/mL (≈ 90.7 µM).

A word on the IC50: it is the concentration that gives 50% inhibition. In the case of `Cc1ccccc1NC(=O)CC(=O)Cn1cc(CSc2nc3ccccc3o2)nn1` [BOK-2, 4–(4-((Benzo[d]oxazol-2-ylthio)methyl)-1H-1,2,3-triazol-1-yl)-3-oxo-N-(o-tolyl) butanamide], in data set [2], the Selectivity index amounted to 57.77. Further, the “3T3 cell IC50” value in data set [2] (MTT assay, mouse fibroblast 3T3 cells, cytotoxicity) was determined as 103.92 µg/mL. The IC50 is 104 µg/mL (≈ 247 µM) in data set [2] (setting [3]); 2 µM and 2.2 µM on DprE1.

In data set [1], `CO[C@H]1/C=C/O[C@@]2(C)Oc3c(C)c(O)c4c(O)c(c(/C=N/N5CCN(C)CC5)c(O)c4c3C2=O)NC(=O)/C(C)=C\C=C\[C@H](C)[C@H](O)[C@@H](C)[C@@H](O)[C@@H](C)[C@H](OC(C)=O)[C@@H]1C` [Rifampicin, reference compound] showed an MIC50 of under 0.004 µg/mL.

The inhibition is the relative decrease from the control value, in per cent. Consider `O=c1[nH]cc(F)c(=O)[nH]1` [5-Fluorouracil, reference compound], for which the IC50 in data set [2] (setting [3]) amounted to 53.7 µg/mL (≈ 413 µM). For the same molecule, the inhibition at 50 µg/mL in data set [2] (Mus musculus, NIH3T3, MTT assay, 50 μg/mL, read-out: percentage inhibition of 3T3 cells) was over 42%.

The molecule `COc1ccc(C(=O)Cn2cc(CSc3nc4ccccc4o3)nn2)cc1` [BOP-2, 2–(4-((Benzo[d]oxazol-2-ylthio)methyl)-1H-1,2,3-triazol-1-yl)-1–(4-methoxyphenyl)ethan-1-one] came in with a melting point of 148 to 152 °C. In addition, in data set [1], the MIC50 came to 19.1 µg/mL (≈ 50.1 µM).

`O=C(CC(=O)Nc1ccccc1F)Cn1cc(CSc2nc3ccccc3o2)nn1` [BOK-3, 4–(4-((Benzo[d]oxazol-2-ylthio)methyl)-1H-1,2,3-triazol-1-yl)-N-(2-fluorophenyl)-3-oxobutanamide] returned a Selectivity index in data set [2] of 46.75. Also, the IC50 in data set [2] (setting [3]) stood at 112 µg/mL (≈ 263 µM); at DprE1 it was 3 ± 0.6 µM.

In data set [1], `O=C(CC(=O)Nc1ccccc1)Cn1cc(CSc2nc3ccccc3o2)nn1` [BOK-1, 4–(4-((Benzo[d]oxazol-2-ylthio)methyl)-1H-1,2,3-triazol-1-yl)-3-oxo-N-phenyl butanamide] displayed an MIC50 of at most 6.25 µg/mL. Also, the Selectivity index in data set [2] stood at 37.07. Further, the values for the IC50 (in data set [2] (setting [3]); at DprE1) were 118 µg/mL (≈ 291 µM) and 5.2 ± 0.6 µM, respectively.

Regarding `O=C(Cn1cc(CSc2nc3ccccc3o2)nn1)c1ccccc1` [BOP-1, 2–(4-((Benzo[d]oxazol-2-ylthio)methyl)-1H-1,2,3-triazol-1-yl)-1-phenylethan-1-one], the MIC50 in data set [1] was at most 6.25 µg/mL. The molecule further had a Selectivity index in data set [2] of 8.76. Also, the IC50 in data set [2] (setting [3]) was 51.7 µg/mL (≈ 148 µM); on DprE1, 3.3 ± 1 µM.

Take `O=C(Cn1cc(CSc2nc3ccccc3o2)nn1)c1ccc(F)cc1` [BOP-4, 2–(4-((Benzo[d]oxazol-2-ylthio)methyl)-1H-1,2,3-triazol-1-yl)-1–(4-fluorophenyl)ethan-1-one]: the MIC50 in data set [1] was at most 6.25 µg/mL. Moreover, the Selectivity index in data set [2] amounted to 11.62. For the same molecule, the IC50 in data set [2] (setting [3]) was 55.8 µg/mL (≈ 151 µM); against DprE1, 3.1 ± 0.7 µM.

Molecule `CCOC(=O)NC(=O)c1ccsc1NC(=O)c1nc2ccccc2s1` [TCA-1, reference compound] had an IC50 against DprE1 of 3 ± 0.2 µM.

Take `Cc1ccc(NC(=O)CC(=O)Cn2cc(CSc3nc4ccccc4o3)nn2)cc1` [BOK-5, 4–(4-((Benzo[d]oxazol-2-ylthio)methyl)-1H-1,2,3-triazol-1-yl)-3-oxo-N-(p-tolyl) butanamide]: the melting point was 175 to 179 °C. The same molecule came in with an MIC50 in data set [1] of 11.6 µg/mL (≈ 27.5 µM).

With `O=C(CC(=O)Nc1ccc(C(F)(F)F)cc1)Cn1cc(CSc2nc3ccccc3o2)nn1` [BOK-6, 4–(4-((Benzo[d]oxazol-2-ylthio)methyl)-1H-1,2,3-triazol-1-yl)-3-oxo-N-(4-(trifluoromethyl)phenyl)butanamide], the melting point lay within 185 to 189 °C. Further, the MIC50 in data set [1] came out at 39.6 µg/mL (≈ 83.3 µM).

On to `O=C(Cn1cc(CSc2nc3ccccc3o2)nn1)c1ccc([N+](=O)[O-])cc1` [BOP-5, 2–(4-((Benzo[d]oxazol-2-ylthio)methyl)-1H-1,2,3-triazol-1-yl)-1–(4-nitrophenyl)ethan-1-one], for which the melting point lay in the range of 142 to 146 °C. This molecule yielded an MIC50 in data set [1] of 32.3 µg/mL (≈ 81.7 µM).

With `COc1ccc(NC(=O)CC(=O)Cn2cc(CSc3nc4ccccc4o3)nn2)cc1` [BOK-9, 4–(4-((Benzo[d]oxazol-2-ylthio)methyl)-1H-1,2,3-triazol-1-yl)-N-(4-methoxyphenyl)-3-oxo butanamide], the melting point lay in the range of 169 to 172 °C. In data set [1], this molecule had an MIC50 of 10.6 µg/mL (≈ 24.2 µM).

For the molecule `Cc1ccc(C(=O)Cn2cc(CSc3nc4ccccc4o3)nn2)cc1` [BOP-3, 2–(4-((Benzo[d]oxazol-2-ylthio)methyl)-1H-1,2,3-triazol-1-yl)-1-(p-tolyl)ethan-1-one], the melting point fell in the range of 142 to 146 °C. In data set [1], this molecule returned an MIC50 of 20.5 µg/mL (≈ 56.3 µM).

On to `CCOc1ccc(NC(=O)CC(=O)Cn2cc(CSc3nc4ccccc4o3)nn2)cc1` [BOK-10, 4–(4-((Benzo[d]oxazol-2-ylthio)methyl)-1H-1,2,3-triazol-1-yl)-N-(4-ethoxyphenyl)-3-oxo butanamide], for which the melting point lay within 175 to 179 °C. For the same molecule, the MIC50 in data set [1] is 42.6 µg/mL (≈ 94.4 µM).

Take `O=C(CC(=O)Nc1ccc(Cl)cc1)Cn1cc(CSc2nc3ccccc3o2)nn1` [BOK-7, 4–(4-((Benzo[d]oxazol-2-ylthio)methyl)-1H-1,2,3-triazol-1-yl)-N-(4-chlorophenyl)-3-oxo butanamide]: the melting point was 171 to 174 °C. In addition, in data set [1], the “Mtb H37Rv MIC50” value worked out at 6.7 µg/mL and the MIC50 was found to be 6.9 µg/mL (≈ 15.6 µM).

In turn, `O=C(CC(=O)Nc1cccc(Cl)c1)Cn1cc(CSc2nc3ccccc3o2)nn1` [BOK-4, 4–(4-((Benzo[d]oxazol-2-ylthio)methyl)-1H-1,2,3-triazol-1-yl)-N-(3-chlorophenyl)-3-oxobutanamide] gave a melting point of 165 to 169 °C. In data set [1], the “Mtb H37Rv MIC50” value came to 6.9 µg/mL and the MIC50 stood at 3.7 µg/mL (≈ 8.37 µM).

The values are drawn from article PMC11441021, “Novel hybrids of 1,2,3-triazole-benzoxazole: design, synthesis, and assessment of DprE1 enzyme inhibitors using fluorometric assay and computational analysis” (Journal of Enzyme Inhibition and Medicinal Chemistry, 2024).
